# From ChEMBL document CHEMBL5465560, “Selectivity Literature for EUbOPEN Chemogenomic Library” (2024)
# What was measured:
# [1] = biological target: Serine/threonine-protein kinase MRCK gamma (Homo sapiens) (UniProt Q6DT37); test: Selectivity interaction (KinomeScan (DiscoverX)) EUB0000229b CDC42BPG; details: at 10 µM
# [2] = biological target: T1, Testis-specific serine/threonine-protein kinase 1 (Homo sapiens) (UniProt Q9BXA7); test: Selectivity interaction (KinomeScan (DiscoverX)) EUB0000229b TSSK1B; details: at 10 µM
# T1 sequence (whole entry): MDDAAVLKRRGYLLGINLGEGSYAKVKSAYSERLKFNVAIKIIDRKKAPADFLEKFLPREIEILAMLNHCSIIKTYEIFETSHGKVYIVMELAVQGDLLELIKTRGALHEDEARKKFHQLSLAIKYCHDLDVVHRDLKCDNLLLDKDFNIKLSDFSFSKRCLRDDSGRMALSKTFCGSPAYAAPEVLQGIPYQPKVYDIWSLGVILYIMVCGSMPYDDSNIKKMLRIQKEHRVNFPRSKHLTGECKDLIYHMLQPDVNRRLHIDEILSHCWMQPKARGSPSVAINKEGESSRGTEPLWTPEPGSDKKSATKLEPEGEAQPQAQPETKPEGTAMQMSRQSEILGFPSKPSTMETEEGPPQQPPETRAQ
# [3] = biological target: T2, Phosphorylase b kinase gamma catalytic chain, liver/testis isoform (Homo sapiens) (UniProt P15735); test: Selectivity interaction (KinomeScan (DiscoverX)) EUB0000695a PHKG2; details: at 100 nM
# T2 sequence (whole entry): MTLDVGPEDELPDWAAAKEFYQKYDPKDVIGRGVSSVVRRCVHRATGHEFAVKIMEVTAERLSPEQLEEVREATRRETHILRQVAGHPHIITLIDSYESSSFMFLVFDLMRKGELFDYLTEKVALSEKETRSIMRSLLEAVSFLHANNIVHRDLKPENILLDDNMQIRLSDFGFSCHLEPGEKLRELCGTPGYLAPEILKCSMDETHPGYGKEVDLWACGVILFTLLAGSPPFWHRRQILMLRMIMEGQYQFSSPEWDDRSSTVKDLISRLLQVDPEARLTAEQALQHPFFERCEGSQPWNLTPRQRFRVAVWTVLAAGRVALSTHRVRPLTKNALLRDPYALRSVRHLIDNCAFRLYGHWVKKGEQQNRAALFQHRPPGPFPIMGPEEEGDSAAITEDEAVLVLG
# [4] = biological target: Dual specificity protein kinase CLK1 (Homo sapiens, UniProt P49759); test: Selectivity interaction (KinomeScan (DiscoverX)) EUB0001079a CLK1; details: at 1 µM
# Dual specificity protein kinase CLK1, sequence (P49759 whole entry, looked up): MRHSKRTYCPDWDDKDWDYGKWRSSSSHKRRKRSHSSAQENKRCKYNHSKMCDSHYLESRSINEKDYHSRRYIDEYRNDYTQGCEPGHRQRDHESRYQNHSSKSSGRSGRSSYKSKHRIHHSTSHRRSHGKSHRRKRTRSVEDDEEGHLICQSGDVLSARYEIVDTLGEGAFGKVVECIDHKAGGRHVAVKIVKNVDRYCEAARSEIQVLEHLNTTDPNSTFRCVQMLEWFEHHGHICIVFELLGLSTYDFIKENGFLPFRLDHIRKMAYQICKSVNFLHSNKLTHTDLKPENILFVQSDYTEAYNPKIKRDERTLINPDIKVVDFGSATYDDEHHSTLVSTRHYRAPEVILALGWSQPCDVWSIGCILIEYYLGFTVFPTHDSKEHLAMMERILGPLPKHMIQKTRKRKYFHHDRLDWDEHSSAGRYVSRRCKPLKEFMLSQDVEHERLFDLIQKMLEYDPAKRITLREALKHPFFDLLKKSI
# [5] = biological target: Myosin light chain kinase, smooth muscle (Homo sapiens, UniProt Q15746); test: Selectivity interaction (LanthaScreen Eu Kinase Binding Assay) EUB0001632a MYLK; details: at 10 µM
# Myosin light chain kinase, smooth muscle, sequence (Q15746 whole entry): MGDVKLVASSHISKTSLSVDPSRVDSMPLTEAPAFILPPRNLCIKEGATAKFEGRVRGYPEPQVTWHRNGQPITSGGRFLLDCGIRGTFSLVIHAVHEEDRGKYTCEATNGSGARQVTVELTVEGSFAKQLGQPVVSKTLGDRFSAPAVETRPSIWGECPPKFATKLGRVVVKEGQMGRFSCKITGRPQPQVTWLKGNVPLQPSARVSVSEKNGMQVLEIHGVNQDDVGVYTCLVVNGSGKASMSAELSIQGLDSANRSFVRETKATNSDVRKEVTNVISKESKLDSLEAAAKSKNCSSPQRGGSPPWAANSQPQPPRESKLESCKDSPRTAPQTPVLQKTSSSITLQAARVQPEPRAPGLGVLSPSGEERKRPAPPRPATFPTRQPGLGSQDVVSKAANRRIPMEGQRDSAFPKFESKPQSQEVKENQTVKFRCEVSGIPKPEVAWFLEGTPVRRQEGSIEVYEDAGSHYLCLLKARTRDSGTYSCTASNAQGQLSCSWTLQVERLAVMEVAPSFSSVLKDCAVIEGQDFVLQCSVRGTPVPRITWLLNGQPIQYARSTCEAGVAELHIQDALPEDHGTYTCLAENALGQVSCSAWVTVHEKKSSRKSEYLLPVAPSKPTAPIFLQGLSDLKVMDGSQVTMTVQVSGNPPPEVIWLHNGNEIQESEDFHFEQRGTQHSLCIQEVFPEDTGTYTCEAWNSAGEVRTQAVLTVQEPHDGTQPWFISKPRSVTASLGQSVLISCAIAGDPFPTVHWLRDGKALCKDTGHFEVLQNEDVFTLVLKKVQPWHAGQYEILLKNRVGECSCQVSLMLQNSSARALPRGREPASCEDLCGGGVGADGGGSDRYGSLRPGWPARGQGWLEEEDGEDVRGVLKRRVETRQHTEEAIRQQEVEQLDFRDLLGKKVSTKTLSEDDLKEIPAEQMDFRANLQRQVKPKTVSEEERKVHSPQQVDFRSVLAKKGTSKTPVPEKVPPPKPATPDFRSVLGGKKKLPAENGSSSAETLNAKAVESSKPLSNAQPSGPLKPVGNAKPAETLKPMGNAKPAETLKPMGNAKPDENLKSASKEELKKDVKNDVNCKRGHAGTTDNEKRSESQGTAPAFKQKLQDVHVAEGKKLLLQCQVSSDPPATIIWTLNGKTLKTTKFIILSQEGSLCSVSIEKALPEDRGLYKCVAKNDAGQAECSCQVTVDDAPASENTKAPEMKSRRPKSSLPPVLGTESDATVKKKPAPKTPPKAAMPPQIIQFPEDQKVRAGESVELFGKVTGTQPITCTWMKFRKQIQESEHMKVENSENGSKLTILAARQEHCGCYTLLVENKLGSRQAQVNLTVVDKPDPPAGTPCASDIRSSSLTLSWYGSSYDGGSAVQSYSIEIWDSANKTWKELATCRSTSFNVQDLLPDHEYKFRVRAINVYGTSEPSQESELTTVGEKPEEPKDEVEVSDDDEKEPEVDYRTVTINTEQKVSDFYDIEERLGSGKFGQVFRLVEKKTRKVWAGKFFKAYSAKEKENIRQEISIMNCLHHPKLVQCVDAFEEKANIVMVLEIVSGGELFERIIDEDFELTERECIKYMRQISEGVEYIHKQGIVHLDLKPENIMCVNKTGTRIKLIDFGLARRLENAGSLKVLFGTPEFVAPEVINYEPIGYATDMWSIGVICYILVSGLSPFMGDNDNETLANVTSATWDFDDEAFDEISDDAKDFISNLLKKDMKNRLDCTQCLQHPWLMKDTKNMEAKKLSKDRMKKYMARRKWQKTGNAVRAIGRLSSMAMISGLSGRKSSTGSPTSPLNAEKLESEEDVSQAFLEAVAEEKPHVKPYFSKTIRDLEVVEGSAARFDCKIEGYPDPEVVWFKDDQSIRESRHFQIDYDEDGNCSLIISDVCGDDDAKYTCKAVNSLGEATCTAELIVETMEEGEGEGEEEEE
# [6] = biological target: T3, Serine/threonine-protein kinase Nek5 (Homo sapiens) (UniProt Q6P3R8); test: Selectivity interaction (KinomeScan (DiscoverX)) EUB0001049a NEK5; details: at 1 µM
# T3 sequence (whole entry): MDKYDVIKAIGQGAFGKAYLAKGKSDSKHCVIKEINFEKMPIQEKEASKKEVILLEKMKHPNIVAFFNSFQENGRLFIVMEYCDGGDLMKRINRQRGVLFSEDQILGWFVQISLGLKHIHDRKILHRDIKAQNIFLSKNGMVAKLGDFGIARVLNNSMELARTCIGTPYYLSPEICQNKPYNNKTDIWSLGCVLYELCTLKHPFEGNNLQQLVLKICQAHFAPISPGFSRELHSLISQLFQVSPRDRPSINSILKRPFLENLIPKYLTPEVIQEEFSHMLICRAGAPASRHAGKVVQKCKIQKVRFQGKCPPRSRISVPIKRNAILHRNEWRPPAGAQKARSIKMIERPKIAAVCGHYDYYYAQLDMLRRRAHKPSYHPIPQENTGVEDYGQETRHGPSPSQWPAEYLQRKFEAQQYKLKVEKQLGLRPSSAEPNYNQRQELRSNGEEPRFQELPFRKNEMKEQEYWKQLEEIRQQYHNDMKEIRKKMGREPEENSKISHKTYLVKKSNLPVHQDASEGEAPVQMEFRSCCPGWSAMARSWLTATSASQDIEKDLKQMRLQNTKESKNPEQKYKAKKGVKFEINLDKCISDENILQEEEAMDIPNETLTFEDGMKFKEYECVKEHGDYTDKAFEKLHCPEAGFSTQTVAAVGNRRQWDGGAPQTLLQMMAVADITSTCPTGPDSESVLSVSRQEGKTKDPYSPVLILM
# [7] = biological target: T4, Ephrin type-B receptor 4 (Homo sapiens) (UniProt P54760); test: Selectivity interaction (ProQinase) EUB0000171b EPHB4
# T4 sequence (whole entry): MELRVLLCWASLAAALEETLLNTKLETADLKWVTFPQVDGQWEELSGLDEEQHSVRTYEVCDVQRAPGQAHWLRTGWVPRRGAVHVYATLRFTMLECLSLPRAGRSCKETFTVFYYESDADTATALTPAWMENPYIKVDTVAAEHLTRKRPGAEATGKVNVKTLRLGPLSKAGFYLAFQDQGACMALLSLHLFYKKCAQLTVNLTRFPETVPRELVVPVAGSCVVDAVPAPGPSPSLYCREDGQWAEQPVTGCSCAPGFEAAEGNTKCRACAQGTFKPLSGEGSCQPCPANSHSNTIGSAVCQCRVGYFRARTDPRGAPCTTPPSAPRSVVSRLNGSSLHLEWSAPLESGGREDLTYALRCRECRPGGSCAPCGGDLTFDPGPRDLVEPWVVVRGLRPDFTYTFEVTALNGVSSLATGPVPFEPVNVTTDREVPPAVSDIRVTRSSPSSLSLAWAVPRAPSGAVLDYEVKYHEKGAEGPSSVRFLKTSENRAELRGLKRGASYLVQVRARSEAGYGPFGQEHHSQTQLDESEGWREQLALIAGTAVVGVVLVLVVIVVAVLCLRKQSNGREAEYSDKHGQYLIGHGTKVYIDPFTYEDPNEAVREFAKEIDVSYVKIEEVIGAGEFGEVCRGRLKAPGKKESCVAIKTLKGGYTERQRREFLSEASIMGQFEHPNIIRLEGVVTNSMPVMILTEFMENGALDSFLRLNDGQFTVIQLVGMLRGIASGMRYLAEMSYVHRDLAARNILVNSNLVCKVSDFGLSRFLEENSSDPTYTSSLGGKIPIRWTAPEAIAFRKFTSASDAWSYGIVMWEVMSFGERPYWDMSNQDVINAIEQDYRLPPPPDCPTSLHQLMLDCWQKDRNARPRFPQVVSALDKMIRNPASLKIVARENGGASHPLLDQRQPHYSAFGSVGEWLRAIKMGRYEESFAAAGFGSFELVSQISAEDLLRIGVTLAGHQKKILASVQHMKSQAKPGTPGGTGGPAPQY
# [8] = biological target: T2, Phosphorylase b kinase gamma catalytic chain, liver/testis isoform (Homo sapiens); test: Selectivity interaction (ProQinase) EUB0000171b PHKG2
# [9] = biological target: Misshapen-like kinase 1 (Homo sapiens, UniProt Q8N4C8); test: Selectivity interaction (Enzymatic assay) EUB0001199aCl MINK1
# [10] = biological target: Mitogen-activated protein kinase 11 (Homo sapiens) (UniProt Q15759); test: Selectivity interaction (KinomeScan (DiscoverX)) EUB0000655a MAPK11; details: at 10 µM
# Mitogen-activated protein kinase 11 (Homo sapiens), sequence (Q15759 whole entry): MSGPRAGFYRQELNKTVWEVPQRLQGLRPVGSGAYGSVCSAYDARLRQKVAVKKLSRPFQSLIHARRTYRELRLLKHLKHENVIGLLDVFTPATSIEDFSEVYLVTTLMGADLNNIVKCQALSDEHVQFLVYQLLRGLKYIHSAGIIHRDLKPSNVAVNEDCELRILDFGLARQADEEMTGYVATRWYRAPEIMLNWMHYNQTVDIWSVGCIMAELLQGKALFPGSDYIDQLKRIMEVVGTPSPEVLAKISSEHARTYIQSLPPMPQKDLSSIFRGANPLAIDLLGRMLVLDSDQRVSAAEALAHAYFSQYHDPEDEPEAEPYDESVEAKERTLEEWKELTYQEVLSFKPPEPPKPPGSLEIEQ
# Serine/threonine-protein kinase MRCK gamma (Homo sapiens), sequence (Q6DT37 whole entry): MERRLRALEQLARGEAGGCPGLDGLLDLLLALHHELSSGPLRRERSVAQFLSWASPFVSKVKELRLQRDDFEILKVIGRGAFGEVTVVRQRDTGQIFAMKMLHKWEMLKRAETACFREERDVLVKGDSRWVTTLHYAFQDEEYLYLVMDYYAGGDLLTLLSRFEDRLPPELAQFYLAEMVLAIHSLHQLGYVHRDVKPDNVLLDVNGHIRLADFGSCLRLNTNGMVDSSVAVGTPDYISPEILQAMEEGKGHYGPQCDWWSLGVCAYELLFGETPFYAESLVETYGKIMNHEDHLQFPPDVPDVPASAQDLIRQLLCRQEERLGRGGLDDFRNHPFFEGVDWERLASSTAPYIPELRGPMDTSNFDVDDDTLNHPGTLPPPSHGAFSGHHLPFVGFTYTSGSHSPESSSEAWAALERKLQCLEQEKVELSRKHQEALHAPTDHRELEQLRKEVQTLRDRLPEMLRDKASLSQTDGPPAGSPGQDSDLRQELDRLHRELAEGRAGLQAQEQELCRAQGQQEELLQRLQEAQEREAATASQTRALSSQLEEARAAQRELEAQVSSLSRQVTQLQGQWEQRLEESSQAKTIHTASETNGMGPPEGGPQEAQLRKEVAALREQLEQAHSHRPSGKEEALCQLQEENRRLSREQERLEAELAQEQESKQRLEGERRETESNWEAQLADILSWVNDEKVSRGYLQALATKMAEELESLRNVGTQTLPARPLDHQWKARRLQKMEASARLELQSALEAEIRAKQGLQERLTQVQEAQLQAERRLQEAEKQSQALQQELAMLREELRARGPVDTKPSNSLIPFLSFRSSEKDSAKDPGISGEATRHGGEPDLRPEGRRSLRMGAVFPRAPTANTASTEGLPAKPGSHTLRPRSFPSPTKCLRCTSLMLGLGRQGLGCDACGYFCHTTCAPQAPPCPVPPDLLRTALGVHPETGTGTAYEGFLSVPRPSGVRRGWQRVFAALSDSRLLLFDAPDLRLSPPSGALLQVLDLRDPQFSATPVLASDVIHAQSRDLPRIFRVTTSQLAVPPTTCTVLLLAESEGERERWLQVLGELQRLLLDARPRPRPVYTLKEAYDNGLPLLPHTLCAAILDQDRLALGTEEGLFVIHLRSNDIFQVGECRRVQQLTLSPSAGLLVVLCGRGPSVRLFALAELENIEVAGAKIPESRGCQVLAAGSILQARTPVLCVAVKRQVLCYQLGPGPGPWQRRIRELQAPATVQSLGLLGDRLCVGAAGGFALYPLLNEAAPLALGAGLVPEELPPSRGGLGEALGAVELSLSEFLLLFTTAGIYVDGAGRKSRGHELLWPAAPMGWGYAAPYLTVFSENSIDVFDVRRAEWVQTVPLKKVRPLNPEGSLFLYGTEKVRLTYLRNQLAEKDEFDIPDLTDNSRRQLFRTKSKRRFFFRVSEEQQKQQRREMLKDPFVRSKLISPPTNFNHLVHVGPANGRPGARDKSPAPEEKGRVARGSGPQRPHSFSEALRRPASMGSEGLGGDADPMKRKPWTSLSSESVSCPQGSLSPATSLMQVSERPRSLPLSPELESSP
structure (smiles),measurement,setting,value
COc1cc(N(C)c2ccnc3ccc(C(F)(F)F)cc23)cc(OC)c1OC,% binding,[1],94%
same,% binding,[2],91%
Cc1cc(F)c(C(=O)Nc2cccc(-c3nncn3C(C)C)n2)cc1-n1cnc(C2CC2)c1,% of control,[3],85%
Nc1cnc(N2CCc3cc(S(=O)(=O)Nc4c(F)cc(Cl)cc4F)cc(N4CCCC4=O)c32)nc1 [TP-020n],% of control,[4],85%
Cn1cc(-n2cnc3c(NCc4nc5cc(Cl)c(Cl)cc5[nH]4)nc(N4CCOCC4)nc32)cn1,% of inhibition,[5],-17.4%
COc1cc(Nc2nc(C)cc(-c3cnn4nc(OC)ccc34)n2)cc(C(F)(F)F)c1,% of control,[6],96%
C=CC(=O)Nc1cccc(C(=O)Nc2ccc(Nc3cc(-c4[nH]c(SC)nc4C)ccn3)cc2)c1,% of control,[7]; at 1 µM,110%
same,% of control,[7]; at 5 µM,111%
same,% of control,[8]; at 1 µM,94%
same,% of control,[8]; at 5 µM,96%
CN1Cc2nccc(-c3cn(C)nc3-c3ccc(F)cc3)c2C1=O,IC50,[9],1.57 µM
CN(C)CCOc1ccc(-c2nc(-c3ccncc3)c(-c3ccc4c(c3)CC/C4=N\O)[nH]2)cc1,% of control,[10],91%
